According to publication PMC11345841, “Exploring 2-Sulfonylpyrimidine Warheads as Acrylamide Surrogates for Targeted Covalent Inhibition: A BTK Story” (Journal of Medicinal Chemistry, 2024):
Where two headings read alike, the source gives them in different places.

How the values were obtained:
Experiment in all cases: KINOMEscan ScanTK
Assay type in all cases: binding
PYK2 = target: T1, PYK2 (Homo sapiens, UniProt Q14289)
T1 construct: purchased Eurofins DiscoverX KINOMEscan (scanTK)

EPHA6 = target: T2, EPHA6 (Homo sapiens, UniProt Q9UF33)
T2 construct: purchased Eurofins DiscoverX KINOMEscan (scanTK)
T2 sequence (Q9UF33 23-1036): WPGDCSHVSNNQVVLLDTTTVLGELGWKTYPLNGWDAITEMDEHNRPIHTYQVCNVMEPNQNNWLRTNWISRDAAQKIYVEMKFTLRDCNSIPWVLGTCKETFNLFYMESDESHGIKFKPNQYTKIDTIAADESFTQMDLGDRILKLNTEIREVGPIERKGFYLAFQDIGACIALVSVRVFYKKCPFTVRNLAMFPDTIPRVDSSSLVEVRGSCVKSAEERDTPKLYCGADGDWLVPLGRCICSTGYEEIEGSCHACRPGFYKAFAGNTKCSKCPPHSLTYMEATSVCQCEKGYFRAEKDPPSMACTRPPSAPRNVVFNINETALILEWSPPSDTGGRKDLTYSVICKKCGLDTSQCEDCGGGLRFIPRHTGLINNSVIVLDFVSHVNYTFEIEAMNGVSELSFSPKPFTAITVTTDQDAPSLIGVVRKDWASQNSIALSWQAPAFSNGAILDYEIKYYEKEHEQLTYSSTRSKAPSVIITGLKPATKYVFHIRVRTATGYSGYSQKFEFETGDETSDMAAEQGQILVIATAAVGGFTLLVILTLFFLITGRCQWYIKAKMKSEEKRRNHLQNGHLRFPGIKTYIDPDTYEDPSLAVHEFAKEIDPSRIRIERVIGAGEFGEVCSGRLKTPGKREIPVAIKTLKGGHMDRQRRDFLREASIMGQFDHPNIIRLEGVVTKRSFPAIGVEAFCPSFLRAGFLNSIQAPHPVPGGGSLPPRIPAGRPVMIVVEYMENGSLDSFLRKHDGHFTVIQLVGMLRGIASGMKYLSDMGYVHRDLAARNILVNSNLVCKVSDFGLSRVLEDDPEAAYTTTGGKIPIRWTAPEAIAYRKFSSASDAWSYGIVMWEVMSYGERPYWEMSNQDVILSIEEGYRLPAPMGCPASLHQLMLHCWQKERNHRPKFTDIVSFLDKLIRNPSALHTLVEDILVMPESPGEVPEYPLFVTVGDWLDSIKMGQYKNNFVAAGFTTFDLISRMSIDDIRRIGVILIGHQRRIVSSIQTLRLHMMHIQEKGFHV

EPHA5 = target: T3, EPHA5 (Homo sapiens, UniProt P54756)
T3 construct: purchased Eurofins DiscoverX KINOMEscan (scanTK)

FER = target: T4, FER (Homo sapiens, UniProt P16591)
T4 construct: purchased Eurofins DiscoverX KINOMEscan (scanTK)

SRC = target: T5, SRC (Homo sapiens, UniProt P12931)
T5 construct: purchased Eurofins DiscoverX KINOMEscan (scanTK)

TNK2 = target: T6, TNK2 (Homo sapiens, UniProt Q07912)
T6 construct: purchased Eurofins DiscoverX KINOMEscan (scanTK)

[1] = target: T7, EGFR(L747-S752del, P753S) (Homo sapiens, UniProt P00533, DEL747-752/P753S)
T7 construct: purchased Eurofins DiscoverX KINOMEscan (scanTK)

AXL = target: T8, AXL (Homo sapiens, UniProt P30530)
T8 construct: purchased Eurofins DiscoverX KINOMEscan (scanTK)
T8 sequence (P30530 26-894): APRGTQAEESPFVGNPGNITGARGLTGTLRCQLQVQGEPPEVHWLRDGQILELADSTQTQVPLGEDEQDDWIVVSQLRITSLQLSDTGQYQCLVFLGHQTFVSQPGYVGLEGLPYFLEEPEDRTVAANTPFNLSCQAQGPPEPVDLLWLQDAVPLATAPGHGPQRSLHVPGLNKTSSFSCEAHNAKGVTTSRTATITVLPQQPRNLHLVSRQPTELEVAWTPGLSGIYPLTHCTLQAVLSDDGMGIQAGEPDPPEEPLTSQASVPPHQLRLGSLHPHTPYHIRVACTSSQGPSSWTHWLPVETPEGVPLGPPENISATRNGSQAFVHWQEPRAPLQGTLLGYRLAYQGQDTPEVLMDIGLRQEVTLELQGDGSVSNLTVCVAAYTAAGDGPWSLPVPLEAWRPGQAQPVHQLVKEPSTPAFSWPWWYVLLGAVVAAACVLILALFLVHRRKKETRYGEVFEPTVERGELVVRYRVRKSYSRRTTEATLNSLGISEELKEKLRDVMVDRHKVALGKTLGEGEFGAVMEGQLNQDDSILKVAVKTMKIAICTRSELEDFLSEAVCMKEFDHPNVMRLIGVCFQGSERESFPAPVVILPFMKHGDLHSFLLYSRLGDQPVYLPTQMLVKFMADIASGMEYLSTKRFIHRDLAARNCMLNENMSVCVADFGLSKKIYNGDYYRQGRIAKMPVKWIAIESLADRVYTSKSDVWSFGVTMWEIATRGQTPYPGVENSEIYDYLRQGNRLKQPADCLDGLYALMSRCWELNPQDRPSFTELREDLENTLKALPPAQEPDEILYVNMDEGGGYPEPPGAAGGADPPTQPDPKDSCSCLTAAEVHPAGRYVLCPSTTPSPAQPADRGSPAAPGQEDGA

ALK(L1196M) = target: T9, ALK(L1196M) (Homo sapiens, UniProt Q9UM73, L1196M)
T9 construct: purchased Eurofins DiscoverX KINOMEscan (scanTK)

[2] = target: T10, JAK2(JH1domain-catalytic) (Homo sapiens, UniProt O60674)
T10 construct: JAK2(JH1domain-catalytic); purchased Eurofins DiscoverX KINOMEscan (scanTK)

EGFR(G719S) = target: T11, EGFR(G719S) (Homo sapiens, UniProt P00533, G719S)
T11 construct: purchased Eurofins DiscoverX KINOMEscan (scanTK)
T11 sequence (P00533 25-1210 G719S): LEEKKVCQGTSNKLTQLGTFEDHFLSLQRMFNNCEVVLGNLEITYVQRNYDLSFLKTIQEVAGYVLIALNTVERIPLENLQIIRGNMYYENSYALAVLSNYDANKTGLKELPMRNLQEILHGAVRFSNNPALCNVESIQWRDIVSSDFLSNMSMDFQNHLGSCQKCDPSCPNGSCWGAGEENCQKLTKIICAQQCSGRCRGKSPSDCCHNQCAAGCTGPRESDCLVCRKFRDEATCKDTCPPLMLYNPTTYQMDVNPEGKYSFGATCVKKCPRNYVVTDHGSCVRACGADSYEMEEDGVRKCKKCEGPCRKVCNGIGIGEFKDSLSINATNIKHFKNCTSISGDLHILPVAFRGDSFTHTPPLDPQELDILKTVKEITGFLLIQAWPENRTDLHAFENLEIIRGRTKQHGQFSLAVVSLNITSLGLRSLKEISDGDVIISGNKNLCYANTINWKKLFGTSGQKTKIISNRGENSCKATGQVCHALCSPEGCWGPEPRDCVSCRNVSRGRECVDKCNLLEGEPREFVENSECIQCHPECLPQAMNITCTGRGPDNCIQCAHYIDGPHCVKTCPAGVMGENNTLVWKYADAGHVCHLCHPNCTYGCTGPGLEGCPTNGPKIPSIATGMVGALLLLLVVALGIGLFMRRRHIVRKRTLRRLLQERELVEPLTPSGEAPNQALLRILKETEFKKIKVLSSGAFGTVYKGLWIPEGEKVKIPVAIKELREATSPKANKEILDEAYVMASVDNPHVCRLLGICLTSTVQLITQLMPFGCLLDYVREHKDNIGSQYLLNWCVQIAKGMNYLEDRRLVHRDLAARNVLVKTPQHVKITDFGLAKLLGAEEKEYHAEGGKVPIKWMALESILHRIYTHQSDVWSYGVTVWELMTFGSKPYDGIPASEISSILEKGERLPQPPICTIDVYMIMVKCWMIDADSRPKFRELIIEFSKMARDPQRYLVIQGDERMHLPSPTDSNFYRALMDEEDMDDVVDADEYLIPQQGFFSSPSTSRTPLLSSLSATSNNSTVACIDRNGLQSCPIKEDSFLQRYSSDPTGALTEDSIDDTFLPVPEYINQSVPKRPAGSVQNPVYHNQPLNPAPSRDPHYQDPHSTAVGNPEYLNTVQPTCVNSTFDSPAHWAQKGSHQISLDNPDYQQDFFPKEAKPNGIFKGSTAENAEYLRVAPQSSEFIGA

T5 sequence (P12931 whole entry): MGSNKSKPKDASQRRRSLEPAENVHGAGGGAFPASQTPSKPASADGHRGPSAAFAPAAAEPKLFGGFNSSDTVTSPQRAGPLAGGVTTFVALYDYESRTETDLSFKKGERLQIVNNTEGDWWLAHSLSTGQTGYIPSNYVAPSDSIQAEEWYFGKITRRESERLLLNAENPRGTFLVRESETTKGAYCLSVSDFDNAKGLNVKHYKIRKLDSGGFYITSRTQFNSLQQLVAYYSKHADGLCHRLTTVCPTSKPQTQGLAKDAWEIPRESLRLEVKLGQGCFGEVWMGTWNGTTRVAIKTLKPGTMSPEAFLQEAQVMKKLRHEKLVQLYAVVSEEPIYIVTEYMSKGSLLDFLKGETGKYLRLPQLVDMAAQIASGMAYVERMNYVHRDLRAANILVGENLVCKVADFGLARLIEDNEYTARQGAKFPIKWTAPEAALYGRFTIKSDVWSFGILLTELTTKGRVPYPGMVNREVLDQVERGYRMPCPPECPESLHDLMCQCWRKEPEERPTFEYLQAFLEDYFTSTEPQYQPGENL
T3 sequence (P54756 25-1037): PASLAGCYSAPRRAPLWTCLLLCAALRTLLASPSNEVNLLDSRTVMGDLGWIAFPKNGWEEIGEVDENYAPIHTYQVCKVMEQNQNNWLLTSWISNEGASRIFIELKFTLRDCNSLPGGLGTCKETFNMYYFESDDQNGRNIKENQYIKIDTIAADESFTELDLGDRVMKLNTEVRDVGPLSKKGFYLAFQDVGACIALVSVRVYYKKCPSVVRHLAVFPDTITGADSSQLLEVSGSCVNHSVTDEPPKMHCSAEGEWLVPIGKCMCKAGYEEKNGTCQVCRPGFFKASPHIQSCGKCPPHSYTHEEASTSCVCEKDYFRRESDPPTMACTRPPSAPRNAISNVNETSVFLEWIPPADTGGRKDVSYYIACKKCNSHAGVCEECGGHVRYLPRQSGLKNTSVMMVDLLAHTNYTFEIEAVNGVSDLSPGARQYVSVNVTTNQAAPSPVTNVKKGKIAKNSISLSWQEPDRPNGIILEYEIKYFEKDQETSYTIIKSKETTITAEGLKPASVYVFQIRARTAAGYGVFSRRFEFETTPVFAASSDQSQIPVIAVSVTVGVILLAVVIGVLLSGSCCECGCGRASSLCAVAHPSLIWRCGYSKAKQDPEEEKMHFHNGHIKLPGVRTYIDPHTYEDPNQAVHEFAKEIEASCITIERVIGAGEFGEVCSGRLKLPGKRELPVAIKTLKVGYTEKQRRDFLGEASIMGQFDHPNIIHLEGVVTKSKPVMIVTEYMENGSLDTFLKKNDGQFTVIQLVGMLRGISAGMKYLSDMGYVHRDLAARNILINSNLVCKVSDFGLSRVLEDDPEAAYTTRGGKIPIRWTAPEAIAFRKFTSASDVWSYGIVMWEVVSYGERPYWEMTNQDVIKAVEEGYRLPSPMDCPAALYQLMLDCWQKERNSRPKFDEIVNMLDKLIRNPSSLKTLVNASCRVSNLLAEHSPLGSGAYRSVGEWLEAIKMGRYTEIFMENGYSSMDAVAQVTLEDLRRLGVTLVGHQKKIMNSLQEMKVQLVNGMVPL
T6 sequence (Q07912 whole entry): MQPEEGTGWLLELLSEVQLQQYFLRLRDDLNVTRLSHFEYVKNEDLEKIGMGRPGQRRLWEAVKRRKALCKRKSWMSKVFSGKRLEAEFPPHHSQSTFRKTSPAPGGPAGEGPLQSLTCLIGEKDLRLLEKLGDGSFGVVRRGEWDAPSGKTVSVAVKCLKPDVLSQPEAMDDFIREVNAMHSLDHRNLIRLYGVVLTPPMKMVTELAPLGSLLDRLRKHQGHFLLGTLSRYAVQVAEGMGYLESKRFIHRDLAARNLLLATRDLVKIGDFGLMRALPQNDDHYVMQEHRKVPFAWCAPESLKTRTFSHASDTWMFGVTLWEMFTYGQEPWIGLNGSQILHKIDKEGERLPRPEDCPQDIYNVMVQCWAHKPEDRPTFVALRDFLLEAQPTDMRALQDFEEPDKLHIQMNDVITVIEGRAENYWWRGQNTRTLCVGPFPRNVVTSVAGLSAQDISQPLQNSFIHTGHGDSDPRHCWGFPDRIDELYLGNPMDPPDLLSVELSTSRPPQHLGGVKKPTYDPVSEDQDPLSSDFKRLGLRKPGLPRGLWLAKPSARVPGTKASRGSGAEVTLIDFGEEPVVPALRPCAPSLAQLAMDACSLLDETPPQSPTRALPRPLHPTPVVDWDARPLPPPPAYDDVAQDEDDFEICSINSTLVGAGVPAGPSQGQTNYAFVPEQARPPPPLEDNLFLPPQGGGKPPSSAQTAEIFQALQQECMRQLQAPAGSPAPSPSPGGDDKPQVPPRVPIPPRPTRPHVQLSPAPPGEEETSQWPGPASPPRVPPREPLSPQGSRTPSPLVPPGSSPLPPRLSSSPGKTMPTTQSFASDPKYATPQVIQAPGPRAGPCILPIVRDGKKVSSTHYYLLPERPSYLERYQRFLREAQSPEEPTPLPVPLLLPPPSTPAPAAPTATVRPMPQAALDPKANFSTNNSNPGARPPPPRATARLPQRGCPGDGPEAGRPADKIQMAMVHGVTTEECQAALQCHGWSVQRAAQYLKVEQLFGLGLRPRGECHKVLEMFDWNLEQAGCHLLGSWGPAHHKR
T4 sequence (P16591 whole entry): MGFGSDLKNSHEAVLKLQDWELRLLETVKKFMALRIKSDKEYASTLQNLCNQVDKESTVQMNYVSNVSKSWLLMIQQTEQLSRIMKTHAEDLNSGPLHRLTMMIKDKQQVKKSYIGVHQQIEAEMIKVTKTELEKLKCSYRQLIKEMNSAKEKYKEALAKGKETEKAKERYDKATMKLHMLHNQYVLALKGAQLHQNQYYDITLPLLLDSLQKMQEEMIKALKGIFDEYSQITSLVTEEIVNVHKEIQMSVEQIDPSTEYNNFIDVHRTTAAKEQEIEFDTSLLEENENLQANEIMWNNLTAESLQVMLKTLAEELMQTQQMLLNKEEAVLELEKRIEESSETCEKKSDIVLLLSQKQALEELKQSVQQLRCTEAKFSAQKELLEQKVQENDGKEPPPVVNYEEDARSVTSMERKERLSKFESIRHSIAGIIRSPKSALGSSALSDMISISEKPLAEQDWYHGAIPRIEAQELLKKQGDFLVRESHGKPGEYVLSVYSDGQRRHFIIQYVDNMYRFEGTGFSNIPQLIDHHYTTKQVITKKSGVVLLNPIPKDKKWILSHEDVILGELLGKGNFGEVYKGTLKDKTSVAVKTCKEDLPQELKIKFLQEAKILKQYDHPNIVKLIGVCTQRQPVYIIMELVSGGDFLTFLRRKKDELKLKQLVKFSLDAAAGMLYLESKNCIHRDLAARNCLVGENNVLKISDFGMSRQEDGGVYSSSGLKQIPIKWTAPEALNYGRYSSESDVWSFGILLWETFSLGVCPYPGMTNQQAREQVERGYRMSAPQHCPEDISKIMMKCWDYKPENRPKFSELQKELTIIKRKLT
T10 sequence (O60674 849-1132 limits assumed): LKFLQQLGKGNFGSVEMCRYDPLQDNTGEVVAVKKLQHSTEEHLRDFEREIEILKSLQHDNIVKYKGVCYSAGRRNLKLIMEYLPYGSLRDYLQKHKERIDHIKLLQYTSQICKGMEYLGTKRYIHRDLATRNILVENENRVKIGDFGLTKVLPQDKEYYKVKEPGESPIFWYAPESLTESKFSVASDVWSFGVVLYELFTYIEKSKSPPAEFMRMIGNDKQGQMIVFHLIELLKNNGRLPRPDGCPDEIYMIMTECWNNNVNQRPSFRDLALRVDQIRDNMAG

SMILES: Cc1cnc(S(C)(=O)=O)nc1N1CCCC(n2nc(-c3ccc(Oc4ccccc4)cc3)c3c(N)ncnc32)C1 (centres unmarked) [Compound 8a, 1-(1-(5-Methyl-2-(methylsulfonyl)pyrimidin-4-yl)piperidin-3-yl)-3-(4-phenoxyphenyl)-1H-pyrazolo[3,4-d]pyrimidin-4-amine]
- remaining binding at 1 µM (PYK2; @1000nM, read-out: %Control): 92%
- remaining binding at 1 µM (PYK2; read-out: %Control @1000nM): 92%
- difference in %Control from compound Ib at 1 µM (EPHA6; @1000nM): 23%
- remaining binding at 1 µM (EPHA6; @1000nM, read-out: %Control): 100%
- remaining binding at 1 µM (EPHA6; read-out: %Control @1000nM): 100%
- difference in %Control from compound Ib at 1 µM (EPHA5; @1000nM): -1%
- remaining binding at 1 µM (EPHA5; @1000nM, read-out: %Control): 95%
- remaining binding at 1 µM (EPHA5; read-out: %Control @1000nM): 95%
- difference in %Control versus compound Ib at 1 µM (FER; @1000nM): 0%
- remaining binding at 1 µM (FER; @1000nM, read-out: %Control): 100%
- remaining binding at 1 µM (FER; read-out: %Control @1000nM): 100%
- remaining binding at 1 µM (SRC; @1000nM, read-out: %Control): 17%
- remaining binding at 1 µM (SRC; read-out: %Control @1000nM): 17%
- remaining binding at 1 µM (TNK2; @1000nM, read-out: %Control): 96%
- remaining binding at 1 µM (TNK2; read-out: %Control @1000nM): 96%
- difference in %Control versus compound Ib at 1 µM ([1]; @1000nM): 88.5%
- remaining binding at 1 µM ([1]; @1000nM, read-out: %Control): 94%
- remaining binding at 1 µM ([1]; read-out: %Control @1000nM): 94%
- difference in %Control versus compound Ib at 1 µM (AXL; @1000nM): 25%
- remaining binding at 1 µM (AXL; @1000nM, read-out: %Control): 100%
- remaining binding at 1 µM (AXL; read-out: %Control @1000nM): 100%
- difference in % of control vs compound Ib at 1 µM (ALK(L1196M); @1000nM): -5%
- remaining binding at 1 µM (ALK(L1196M); @1000nM, read-out: %Control): 95%
- remaining binding at 1 µM (ALK(L1196M); read-out: %Control @1000nM): 95%
- difference in %Control vs compound Ib at 1 µM ([2]; @1000nM): -13%
- remaining binding at 1 µM ([2]; @1000nM, read-out: %Control): 87%
- remaining binding at 1 µM ([2]; read-out: %Control @1000nM): 87%
- difference in %Control from compound Ib at 1 µM (EGFR(G719S); @1000nM): 95.4%
- remaining binding at 1 µM (EGFR(G719S); @1000nM, read-out: %Control): 96%
- remaining binding at 1 µM (EGFR(G719S); read-out: %Control @1000nM): 96%

SMILES: C=CC(=O)N1CCC[C@@H](n2nc(-c3ccc(Oc4ccccc4)cc3)c3c(N)ncnc32)C1 [Compound 1g, Ibrutinib, reference compound]
- remaining binding at 1 µM (PYK2; @1000nM, read-out: %Control): 100%
- remaining binding at 1 µM (PYK2; read-out: %Control @1000nM): 100%
- remaining binding at 1 µM (EPHA6; @1000nM, read-out: %Control): 77%
- remaining binding at 1 µM (EPHA6; read-out: %Control @1000nM): 77%
- remaining binding at 1 µM (EPHA5; @1000nM, read-out: %Control): 96%
- remaining binding at 1 µM (EPHA5; read-out: %Control @1000nM): 96%
- remaining binding at 1 µM (FER; @1000nM, read-out: %Control): 100%
- remaining binding at 1 µM (FER; read-out: %Control @1000nM): 100%
- remaining binding at 1 µM (AXL; @1000nM, read-out: %Control): 75%
- remaining binding at 1 µM (AXL; read-out: %Control @1000nM): 75%
- remaining binding at 1 µM (ALK(L1196M); @1000nM, read-out: %Control): 100%
- remaining binding at 1 µM (ALK(L1196M); read-out: %Control @1000nM): 100%
- remaining binding at 1 µM ([2]; @1000nM, read-out: %Control): 100%
- remaining binding at 1 µM ([2]; read-out: %Control @1000nM): 100%

SMILES: COC(=O)c1cnc(S(C)(=O)=O)nc1N1CCCC(n2nc(-c3ccc(Oc4ccccc4)cc3)c3c(N)ncnc32)C1 (centres unmarked) [Compound 8b, Methyl 4-(3-(4-Amino-3-(4-phenoxyphenyl)-1H-pyrazolo[3,4-d]pyrimidin-1-yl)piperidin-1-yl)-2-(methylsulfonyl)pyrimidine-5-carboxylate]
- remaining binding at 1 µM (PYK2; @1000nM, read-out: %Control): 85%
- remaining binding at 1 µM (PYK2; read-out: %Control @1000nM): 85%
- difference in %Control from compound Ib at 1 µM (EPHA6; @1000nM): 15%
- remaining binding at 1 µM (EPHA6; @1000nM, read-out: %Control): 92%
- remaining binding at 1 µM (EPHA6; read-out: %Control @1000nM): 92%
- difference in %Control from compound Ib at 1 µM (EPHA5; @1000nM): 4%
- remaining binding at 1 µM (EPHA5; @1000nM, read-out: %Control): 100%
- remaining binding at 1 µM (EPHA5; read-out: %Control @1000nM): 100%
- difference in %Control versus compound Ib at 1 µM (FER; @1000nM): -10%
- remaining binding at 1 µM (FER; @1000nM, read-out: %Control): 90%
- remaining binding at 1 µM (FER; read-out: %Control @1000nM): 90%
- remaining binding at 1 µM (SRC; @1000nM, read-out: %Control): 60%
- remaining binding at 1 µM (SRC; read-out: %Control @1000nM): 60%
- remaining binding at 1 µM (TNK2; @1000nM, read-out: %Control): 100%
- remaining binding at 1 µM (TNK2; read-out: %Control @1000nM): 100%
- difference in %Control versus compound Ib at 1 µM ([1]; @1000nM): 89.5%
- remaining binding at 1 µM ([1]; @1000nM, read-out: %Control): 95%
- remaining binding at 1 µM ([1]; read-out: %Control @1000nM): 95%
- difference in %Control versus compound Ib at 1 µM (AXL; @1000nM): 25%
- remaining binding at 1 µM (AXL; @1000nM, read-out: %Control): 100%
- remaining binding at 1 µM (AXL; read-out: %Control @1000nM): 100%
- difference in % of control vs compound Ib at 1 µM (ALK(L1196M); @1000nM): -8%
- remaining binding at 1 µM (ALK(L1196M); @1000nM, read-out: %Control): 92%
- remaining binding at 1 µM (ALK(L1196M); read-out: %Control @1000nM): 92%
- difference in %Control vs compound Ib at 1 µM ([2]; @1000nM): -18%
- remaining binding at 1 µM ([2]; @1000nM, read-out: %Control): 82%
- remaining binding at 1 µM ([2]; read-out: %Control @1000nM): 82%
- difference in %Control from compound Ib at 1 µM (EGFR(G719S); @1000nM): 84.4%
- remaining binding at 1 µM (EGFR(G719S); @1000nM, read-out: %Control): 85%
- remaining binding at 1 µM (EGFR(G719S); read-out: %Control @1000nM): 85%
